Source: patent US20260020586A1, “METHOD OF PREPARING GRANULAR FEED ADDITIVE” (CJ CHEILJEDANG CORPORATION, priority 2020, published 2026)

Columns and labels:
[1] = Degree of agglomeration visually evaluated after storage; type: physicochemical; conditions: visual score, good: 0 to poor: 5; after 1 week at 40° C. and 60% relative humidity
pH of granules = type: physicochemical; conditions: granules of Table 8 (bubbling tower, different carbon dioxide input times)

Cl.NCCCC[C@H](N)C(=O)O [Comparative Example 7, L-Lysine hydrochloride]
Degree of agglomeration (good: 0-poor: 5) [1]: 1 | pH (pH of granules): 5.8
